Measured values: ChEMBL document CHEMBL1154499 (Bioorg Med Chem Lett, 2008)
pEC50, pIC50: −log10 of the molar value.

How the values were obtained:
[1] = molecular target: T1, Transcriptional activator protein LuxR (Vibrio fischeri (strain ATCC 700601 / ES114)) (UniProt P35327); experiment: (§1) Antagonist activity at Vibrio fischeri ES114 LuxR receptor assessed as inhibition of OHHL-induced response by luciferase reporter gene assay; assay type: functional; details: Aliivibrio fischeri, concentration not given here
T1 sequence (whole entry): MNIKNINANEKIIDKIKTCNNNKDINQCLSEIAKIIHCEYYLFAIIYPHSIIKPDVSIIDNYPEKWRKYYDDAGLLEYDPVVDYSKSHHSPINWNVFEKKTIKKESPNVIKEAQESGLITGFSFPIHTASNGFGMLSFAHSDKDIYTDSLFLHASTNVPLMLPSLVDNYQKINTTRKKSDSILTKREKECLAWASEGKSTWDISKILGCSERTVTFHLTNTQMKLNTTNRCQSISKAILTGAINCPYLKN

[2] = molecular target: T2, Transcriptional activator protein LuxR (Vibrio fischeri (strain ATCC 700601 / ES114), UniProt P35327); experiment: as §1; assay type: functional, Aliivibrio fischeri
T2 sequence (P35327 whole entry): T1 sequence (whole entry)

[3] = molecular target: T3, Transcriptional activator protein TraR (Agrobacterium tumefaciens, UniProt P33905); experiment: Antagonist activity at Agrobacterium tumefaciens WCF47 TraR receptor assessed as inhibition of OOHL-induced response by beta-galctosidase reporter gene assay
T3 sequence (P33905 whole entry): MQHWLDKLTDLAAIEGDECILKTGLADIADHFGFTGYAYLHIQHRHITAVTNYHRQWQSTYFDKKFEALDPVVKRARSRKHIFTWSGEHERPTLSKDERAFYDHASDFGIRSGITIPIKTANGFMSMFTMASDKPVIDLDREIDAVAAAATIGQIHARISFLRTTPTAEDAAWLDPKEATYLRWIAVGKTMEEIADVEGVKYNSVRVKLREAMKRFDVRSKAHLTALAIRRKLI

[4] = (§2) Antagonist activity at Escherichia coli DH5alpha LasR receptor assessed as inhibition of OdDHL-induced response by beta-galctosidase reporter gene assay; assay type: functional
[5] = Agonist activity at Escherichia coli DH5alpha LasR receptor by beta-galctosidase reporter gene assay; assay type: functional
Escherichia coli [6] = experiment: as §2; assay type: functional; details: dose or concentration not given here
Escherichia coli [7] = experiment: Agonist activity at Escherichia coli DH5alpha LasR receptor at 100 uM by beta-galctosidase reporter gene assay relative to OdDHL; assay type: functional
[8] = molecular target: T1, Transcriptional activator protein LuxR (Vibrio fischeri (strain ATCC 700601 / ES114)); experiment: Agonist activity at Vibrio fischeri ES114 LuxR receptor at 100 uM by luciferase reporter gene assay relative to OHHL; assay type: functional; details: Aliivibrio fischeri

Compound	pIC50 [2]	pIC50 [3]	pIC50 [4]	also measured
COc1cccc(CC(=O)N[C@H]2CCOC2=O)c1	5.60	–	–	inhibition [1]: 85%
COc1ccc(OCC(=O)N[C@H]2CCOC2=O)cc1	–	5.37	–	–
O=C(CCc1ccc(I)cc1)N[C@H]1CCOC1=O	6.20	5.68	–	–
Cc1cccc(CCC(=O)N[C@H]2CCOC2=O)c1	5.68	–	5.05	–
O=C(Cc1cccc2ccccc12)N[C@H]1CCOC1=O	5.89	–	–	–
CSc1ccc(CC(=O)N[C@H]2CCOC2=O)cc1	5.68	5.08	–	–
O=C(Cc1ccc(F)c(C(F)(F)F)c1)N[C@H]1CCOC1=O	6.00	–	–	–
O=C(COc1ccc(F)cc1)N[C@H]1CCOC1=O	–	5.57	–	–
O=C(Cc1ccc(Cl)c(Cl)c1)N[C@H]1CCOC1=O	–	5.62	–	–
O=C(Cc1ccc2ccccc2c1)N[C@H]1CCOC1=O	6.03	5.38	–	–
O=C(Cc1cccc(C(F)(F)F)c1)N[C@H]1CCOC1=O	5.85	–	–	–
CCCC(=O)CC(=O)N[C@H]1CCOC1=O	–	–	–	pEC50 [5]: < 5.00
Cc1ccc(CCC(=O)N[C@H]2CCOC2=O)cc1	5.66	–	5.37	–
O=C(COc1ccc(I)cc1)N[C@H]1CCOC1=O	5.72	6.36	5.70	inhibition (Escherichia coli [6]): 63%
Cc1cccc(CC(=O)N[C@H]2CCOC2=O)c1	5.70	–	–	inhibition [1]: 91%
O=C(Cc1ccc(SC(F)(F)F)cc1)N[C@H]1CCOC1=O	5.89	5.33	–	Activity (Escherichia coli [7]): 65%
O=C(CCc1ccc2c(c1)OCO2)N[C@H]1CCOC1=O	–	–	5.47	–
O=C(CCc1ccc(F)cc1)N[C@H]1CCOC1=O	5.57	–	4.92	–
O=C(COc1cccc([N+](=O)[O-])c1)N[C@H]1CCOC1=O	5.62	–	–	–
O=C(COc1ccc(C(F)(F)F)cc1)N[C@H]1CCOC1=O	–	5.80	–	–
O=C(COc1ccc(Br)cc1)N[C@H]1CCOC1=O	5.52	6.29	5.68	inhibition (Escherichia coli [6]): 67%
O=C(CCc1cccc(I)c1)N[C@H]1CCOC1=O	6.41	–	5.74	–
O=C(COc1ccc(OC(F)(F)F)cc1)N[C@H]1CCOC1=O	–	–	–	pEC50 [5]: 5.20; Activity (Escherichia coli [7]): 30%

Compound	pIC50 [2]	pIC50 [3]	pIC50 [4]	also measured
CSc1ccc(CCC(=O)N[C@H]2CCOC2=O)cc1	5.77	5.96	–	–
O=C(Cc1cc(C(F)(F)F)cc(C(F)(F)F)c1)N[C@H]1CCOC1=O	–	–	–	pEC50 [5]: 5.20; Activity [8]: 70%
O=C(Cc1cccc(I)c1)N[C@H]1CCOC1=O	–	–	5.33	–
O=C(CCc1cccc(C(F)(F)F)c1)N[C@H]1CCOC1=O	6.30	–	–	–
O=C(Cc1cccc([N+](=O)[O-])c1)N[C@H]1CCOC1=O	–	–	6.21	–
O=C(COc1ccc([N+](=O)[O-])cc1)N[C@H]1CCOC1=O	–	6.54	–	–
O=C(COc1ccc(Cl)cc1)N[C@H]1CCOC1=O	–	6.21	5.33	–
Cc1ccc(OCC(=O)N[C@H]2CCOC2=O)cc1	–	5.74	–	–
CCCCCC(=O)CC(=O)N[C@H]1CCOC1=O	–	–	–	pEC50 [5]: < 5.00
O=C(CCc1cccc(Br)c1)N[C@H]1CCOC1=O	6.28	–	5.48	–
CCCCCCCCCC(=O)CC(=O)N[C@H]1CCOC1=O	–	–	–	pEC50 [5]: 8.00
O=C(CCc1ccc(Br)cc1)N[C@H]1CCOC1=O	–	–	6.47	–
O=C(CCc1ccc(C(F)(F)F)cc1)N[C@H]1CCOC1=O	5.66	6.68	–	pEC50 [5]: < 5.00
O=C(CCc1ccc([N+](=O)[O-])cc1)N[C@H]1CCOC1=O	6.00	5.80	5.52	inhibition (Escherichia coli [6]): 67%
COc1ccc(CCC(=O)N[C@H]2CCOC2=O)cc1	–	–	5.17	–
Cc1cccc(OCC(=O)N[C@H]2CCOC2=O)c1	–	5.96	5.11	–
O=C(CCc1ccc(Cl)cc1)N[C@H]1CCOC1=O	6.01	5.48	5.66	–
CSc1cccc(CC(=O)N[C@H]2CCOC2=O)c1	5.82	–	–	–
N#Cc1cccc(CC(=O)N[C@H]2CCOC2=O)c1	–	–	–	Activity [8]: 75%
O=C(CCc1cccc([N+](=O)[O-])c1)N[C@H]1CCOC1=O	6.06	–	5.47	–
O=C(Cc1ccc([N+](=O)[O-])cc1)N[C@H]1CCOC1=O	6.02	5.65	–	–
O=C(Cc1ccc(I)cc1)N[C@H]1CCOC1=O	–	5.90	5.76	–
